Assay results from patent publication US4774251A, “Method of inhibiting aromatase” (Eli Lilly and Company, priority 1984, dated 1988).
Read-outs that look alike come from different tables or passages of the source. Values belong to the compound of their own block, whether it stands above or below them.

Tests used:
aromatase = molecular target: T1, aromatase (Rattus norvegicus, UniProt P22443); experiment: Aromatase inhibition in the rat ovarian microsome assay; type: biochemical
T1 construct: ovarian microsomes are obtained from rats treated with pregnant mares serum gonadotropin; from tissue; host or cells: ovarian microsomes from rats treated with pregnant mares serum gonadotropin
T1 sequence (P22443 1-508): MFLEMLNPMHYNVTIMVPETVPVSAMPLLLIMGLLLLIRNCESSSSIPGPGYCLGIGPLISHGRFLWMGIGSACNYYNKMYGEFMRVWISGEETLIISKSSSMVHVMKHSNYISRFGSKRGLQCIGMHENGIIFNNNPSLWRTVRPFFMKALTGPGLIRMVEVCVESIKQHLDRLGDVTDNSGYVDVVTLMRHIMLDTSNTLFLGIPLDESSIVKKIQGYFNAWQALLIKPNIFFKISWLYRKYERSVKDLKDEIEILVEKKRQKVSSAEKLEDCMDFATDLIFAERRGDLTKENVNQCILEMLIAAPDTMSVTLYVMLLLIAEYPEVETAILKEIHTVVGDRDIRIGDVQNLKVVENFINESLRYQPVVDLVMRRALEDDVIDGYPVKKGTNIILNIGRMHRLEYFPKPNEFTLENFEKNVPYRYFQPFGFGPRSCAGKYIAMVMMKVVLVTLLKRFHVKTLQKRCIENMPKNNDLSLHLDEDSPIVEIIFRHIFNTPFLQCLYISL
Method: In this test system, ovarian microsomes are obtained from rats treated with pregnant mares serum gonadotropin. Test compounds are added to reaction vials containing 0.1 μM 4-androstene-3,17-dione, 100,000 dpm 1,2[^3 H]-androstenedione, the microsomes and a NADPH generating system. The concentrations of the inhibitors tested ranged between 0.005 and 10 μM.

[1] = tested on: uterus (weight stimulated by estrogens produced by aromatization); experiment: Estrogen synthesis inhibition in rats: uterine weight after testosterone propionate; type: in vivo, rat (immature female Wistar); conditions: 7 days, testosterone-treated control: Test I 180.3, Test II 210.4, corn oil control: 66.7, 101.4
Method: Immature female Wistar rats (45-55 grams) were divided into control and test groups of 4-8 animals each. Test compounds were administered for seven days as a component of the diet. Control animals received diet without the test compound. Beginning on the fourth day of the test, all animals treated with the test compound and one half of the control animals were given a subcutaneous injection of 1.0 mg of testosterone propionate in corn oil. The remaining control animals received only an equivalent volume of corn oil. On the seventh day of the test, rats treated with testosterone propionate were injected subcutaneously with 100 μCi of [^3 H]-testosterone in 50 μl of 3:1 (v/v) saline-ethanol.
After two hours, the animals were killed by decapitation. Uteri were isolated, trimmed of extraneous connective tissue, and weighted. […] In the control animals treated with testosterone propionate, estrogens produced by aromatization stimulated the uterus resulting in an increase in weight.

[2] = tested on: estrogen synthesis (ovarian estradiol, estrone, estriol); experiment: Estrogen synthesis inhibition in rats: ovarian steroid concentrations after [3H]-testosterone; type: in vivo, rat (immature female Wistar); conditions: 7 days, ovary; for Mean Steroid Concentration, estriol: testosterone-treated control: Test I 0.41, Test II 0.17; for Mean Steroid Concentration, estrone: testosterone-treated control: Test I 0.88, Test II 0.41; for Mean Steroid Concentration, estradiol: testosterone-treated control: Test I 2.29, Test II 0.78
Method: The ovarian steroids were extracted with 1.5 ml of 9:1 (v/v) toluene/ethanol to which had been added 25 to 100 mcg each of unlabelled estradiol, estriol, and estrone, and approximately 1000 dpm of [^14 C]-estradiol. The samples were vortexed, centrifuged at 500×g for 10 minutes, and the organic phase was transferred to a conical vial. Two additional extractions were performed on the residue in the same way. The pooled organic extract were evaporated for subsequent thin-layer chromatography.
The organic residue from each above extraction was redissolved in 9:1 (v/v) dichloromethane/methanol. The solution of each sample was applied to separate silica gel thin layer chromatography plates which contained a fluorescent indicator. The plates were developed in the first dimension with 160:38:1.5:0.5 (v/v/v/v) dichloromethane/ethyl acetate/methanol/acetic acid to within 3 cm of the top of the plate. After air-drying, the plate was developed in the second dimension with 180:19:1 (v/v/v) dichloromethane/methanol/ammonium hydroxide.
The spots were scraped from the plate using a glass wool plugged Pasteur pipet attached to a vacuum line. The steroids were eluted directly into scintillation vials by the addition of 0.2 ml of dichloromethane followed by two washes each of 2.0 ml of methanol. The organic solvent was evaporated and 10.0 ml of scintillation fluid (Beckman Ready Solv-NA) was added to the vials. Samples were analyzed by liquid scintillation spectrometry. Corrections were made based on the recoveries of the [^14 C]-steroid. Steroid concentrations are expressed as femtomoles per milligram protein.

[3] = rat ovarian microsomes, substrate 4-androstene-3,17-dione 0.1 μM, [3H]-H2O release
[4] = 30 ppm in feed (approx. 3 mg/kg/day)
[5] = 300 ppm in feed (approx. 30 mg/kg/day)

- EC50 (aromatase; [3]): 0.75 µM
SMILES: C=CCN(Cc1cccnc1)c1ccc(Cl)cc1Cl [N--(2,4-dichlorophenyl)-N--(2-propenyl)-3-pyridinemethanamine]

SMILES: C#CCN(Cc1cccnc1)c1ccc(Cl)cc1Cl [N--(2,4-dichlorophenyl)-N--(2-propynyl)-3-pyridinemethanamine]
- EC50 (aromatase): 0.165 µM

- EC50 (aromatase; [3]): 0.31 µM
SMILES: Clc1ccc(N(Cc2ccccc2)Cc2cccnc2)c(Cl)c1 [N--(2,4-dichlorophenyl)-N--benzyl-3-pyridinemethanamine]

SMILES: CCCCCCN(Cc1cccnc1)c1ccc(Cl)cc1Cl [N--(2,4-dichlorophenyl)-N--hexyl-3-pyridinemethanamine]
- EC50 (aromatase): 1.2 µM

- EC50 (aromatase; [3]): < 0.05 µM
SMILES: Fc1ccc(N(Cc2ccccc2)Cc2cccnc2)c(F)c1 [N--(2,4-difluorophenyl)-N--benzyl-3-pyridinemethanamine]
- Mean Uterine Weight [1, 4]: 196.3 mg
- Mean Uterine Weight [1, 5]: 171.4 mg
- Mean Steroid Concentration, estriol [2, 4]: 0.44 femtomoles per milligram of protein
- Mean Steroid Concentration, estrone [2, 4]: 0.00 femtomoles per milligram of protein
- Mean Steroid Concentration, estradiol [2, 4]: 0.84 femtomoles per milligram of protein
- Mean Steroid Concentration, estriol [2, 5]: 0.32 femtomoles per milligram of protein
- Mean Steroid Concentration, estrone [2, 5]: 0.00 femtomoles per milligram of protein
- Mean Steroid Concentration, estradiol [2, 5]: 0.44 femtomoles per milligram of protein

SMILES: CC=CCN(Cc1cccnc1)c1ccc(Cl)cc1Cl [N--(2-butenyl)-N--(2,4-dichlorophenyl)-3-pyridinemethanamine]
- EC50 (aromatase): 0.359 µM

SMILES: Fc1ccc(C(Nc2ccccc2Cl)c2cccnc2)cc1 (stereo not drawn) [N--(2-chlorophenyl)-α-(4-fluorophenyl)-3-pyridinemethanamine]
- Mean Uterine Weight [1, 4]: 154.3 mg
- Mean Uterine Weight [1, 5]: 157.4 mg
- Mean Steroid Concentration, estriol [2, 4]: 0.51 femtomoles per milligram of protein
- Mean Steroid Concentration, estrone [2, 4]: 0.47 femtomoles per milligram of protein
- Mean Steroid Concentration, estradiol [2, 4]: 2.67 femtomoles per milligram of protein
- Mean Steroid Concentration, estriol [2, 5]: 0.37 femtomoles per milligram of protein
- Mean Steroid Concentration, estrone [2, 5]: 0.31 femtomoles per milligram of protein
- Mean Steroid Concentration, estradiol [2, 5]: 1.64 femtomoles per milligram of protein
- EC50 (aromatase; [3]): 0.08 µM

- EC50 (aromatase; [3]): 2 µM
SMILES: CC(c1cccnc1)N(C)c1ccc(Cl)cc1 (stereo not drawn) [N--(4-chlorophenyl)-N,α-dimethyl-3-pyridinemethanamine]

- EC50 (aromatase; [3]): 2.5 µM
SMILES: CN(c1ccc(Cl)cc1)C(c1ccccc1)c1cccnc1 (stereo not drawn) [N--(4-chlorophenyl)-N--methyl-α-phenyl-3-pyridinemethanamine]

- EC50 (aromatase; [3]): 1.2 µM
SMILES: CC(c1cccnc1)N(Cc1ccccc1)c1ccc(Cl)cc1 (stereo not drawn) [N--(4-chlorophenyl)-α-methyl-N--benzyl-3-pyridinemethanamine]

- EC50 (aromatase; [3]): 0.63 µM
SMILES: CCCCN(Cc1cccnc1)c1ccc(C)cc1C [N--butyl-N--(2,4-dimethylphenyl)-3-pyridinemethanamine]

- EC50 (aromatase; [3]): 0.29 µM
SMILES: CCCCN(c1ccc(Cl)cc1)C(c1ccccc1)c1cccnc1 (stereo not drawn) [N--butyl-N--(4-chlorophenyl)-α-phenyl-3-pyridinemethanamine]

- EC50 (aromatase; [3]): 0.37 µM
SMILES: CCCCN(c1ccc(F)cc1)C(C)c1cccnc1 (stereo not drawn) [N--butyl-N--(4-fluorophenyl)-α-methyl-3-pyridinemethanamine]

- EC50 (aromatase; [3]): 0.74 µM
SMILES: CCCCN(Cc1ccc(Cl)cc1)c1cnccn1 [N--butyl-N--[(4-chlorophenyl)methyl]pyrazinamine]
